Assays:
Assay in all cases: relative viability (nuclei count vs DMSO), 5 days (fraction); higher = more cells survive
Alpelisib + Navitoclax = compound: Cc1nc(NC(=O)N2CCC[C@H]2C(N)=O)sc1-c1ccnc(C(C)(C)C(F)(F)F)c1 [Alpelisib] + CC1(C)CCC(c2ccc(Cl)cc2)=C(CN2CCN(c3ccc(C(=O)NS(=O)(=O)c4ccc(N[C@H](CCN5CCOCC5)CSc5ccccc5)c(S(=O)(=O)C(F)(F)F)c4)cc3)CC2)C1 [Navitoclax] (partner 0.5 µM)
Outline: (§1)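 Relative viability was taken as the ratio of nuclei in treated wells to nuclei in vehicle wells. Lung cancer cell lines in 1536-well plates received compounds by pin tool one day after seeding, either one drug alone or a fixed anchor-drug dose plus five library-drug doses (not always all listed) in √10 steps. Nuclei were counted on 4× images after 5 days of treatment, and values are medians of duplicate plates.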

OSI-027 + Pemetrexed = compound: COc1cccc2cc(-c3nc([C@H]4CC[C@H](C(=O)O)CC4)n4ncnc(N)c34)[nH]c12 [OSI-027] + Nc1nc2[nH]cc(CCc3ccc(C(=O)N[C@@H](CCC(=O)O)C(=O)O)cc3)c2c(=O)[nH]1 [Pemetrexed] (partner 0.2 µM)
Outline: as §1

Vemurafenib + Olaparib = compound: CCCS(=O)(=O)Nc1ccc(F)c(C(=O)c2c[nH]c3ncc(-c4ccc(Cl)cc4)cc23)c1F [Vemurafenib] + O=C(c1cc(Cc2n[nH]c(=O)c3ccccc23)ccc1F)N1CCN(C(=O)C2CC2)CC1 [Olaparib] (partner 8 µM)
Outline: as §1

Alpelisib + Foretinib = compound: Cc1nc(NC(=O)N2CCC[C@H]2C(N)=O)sc1-c1ccnc(C(C)(C)C(F)(F)F)c1 [Alpelisib] + COc1cc2c(Oc3ccc(NC(=O)C4(C(=O)Nc5ccc(F)cc5)CC4)cc3F)ccnc2cc1OCCCN1CCOCC1 [Foretinib] (partner 0.25 µM)
Outline: as §1

Row | Cell Line | relative viability (Alpelisib + Navitoclax; first compound 0.04 µM) | relative viability (Alpelisib + Navitoclax; first compound 0.1265 µM) | relative viability (Alpelisib + Navitoclax; first compound 0.4 µM) | relative viability (Alpelisib + Navitoclax; first compound 1.265 µM) | relative viability (Alpelisib + Navitoclax; first compound 4 µM) | relative viability (OSI-027 + Pemetrexed; first compound 0.01 µM) | relative viability (OSI-027 + Pemetrexed; first compound 0.03162 µM) | relative viability (OSI-027 + Pemetrexed; first compound 0.1 µM) | relative viability (OSI-027 + Pemetrexed; first compound 0.3162 µM) | relative viability (OSI-027 + Pemetrexed; first compound 1 µM) | relative viability (Vemurafenib + Olaparib; first compound 0.03162 µM) | relative viability (Vemurafenib + Olaparib; first compound 0.1 µM) | relative viability (Vemurafenib + Olaparib; first compound 0.3162 µM) | relative viability (Vemurafenib + Olaparib; first compound 1 µM) | relative viability (Alpelisib + Foretinib; first compound 0.04 µM) | relative viability (Alpelisib + Foretinib; first compound 0.1265 µM) | relative viability (Alpelisib + Foretinib; first compound 0.4 µM) | relative viability (Alpelisib + Foretinib; first compound 1.265 µM) | relative viability (Alpelisib + Foretinib; first compound 4 µM)
1 | NCI-H2126 | 0.768 | 0.865 | 0.816 | 0.618 | 0.525 | 0.677 | 0.676 | 0.663 | 0.688 | 0.512 | 0.835 | 0.956 | 0.92 | 0.922 | 1.05 | 1.01 | 1.04 | 1.07 | 0.904
2 | NCI-H2170 | 0.54 | 0.638 | 0.52 | 0.316 | 0.308 | 0.26 | 0.263 | 0.289 | 0.325 | 0.305 | 0.54 |  | 0.624 | 0.553 | 0.978 | 0.914 | 1.12 | 0.922 | 0.622
3 | NCI-H2228 | 0.977 | 1 | 0.552 | 0.51 | 0.294 | 0.43 | 0.348 | 0.322 | 0.327 | 0.208 | 0.639 | 0.87 | 0.611 | 0.6 | 0.82 | 0.927 | 0.701 | 0.613 | 0.404
4 | NCI-H2347 | 0.919 | 0.745 | 0.868 | 0.665 | 0.605 | 0.438 | 0.439 | 0.484 | 0.404 | 0.427 | 0.495 | 0.493 | 0.547 | 0.588 | 0.777 | 0.98 | 0.88 | 0.647 | 0.701
5 | NCI-H2405 | 1.05 | 0.894 | 0.798 | 0.596 | 0.789 | 0.854 | 1.01 | 0.922 | 0.85 | 0.448 | 0.857 | 0.893 |  | 0.937 | 1.1 | 1 | 1.1 | 0.849 | 0.711
6 | NCI-H3122 | 1.03 | 0.982 | 1.02 | 0.906 | 0.81 | 0.207 | 0.198 | 0.19 | 0.207 | 0.243 | 0.63 | 0.647 | 0.606 | 0.597 | 1.02 | 0.884 | 0.987 | 0.867 | 0.821
7 | PC-3 [JPC-3] | 0.828 | 0.836 | 0.848 | 0.73 | 0.762 | 0.464 | 1.1 | 0.775 | 0.84 | 0.785 |  |  | 1.05 | 1.25 | 1.08 | 1 | 1.07 | 0.987 | 0.971
8 | PC-14 | 0.984 | 1.08 | 1.16 | 0.913 | 0.945 | 0.136 | 0.149 | 0.149 | 0.139 | 0.191 | 0.292 |  | 0.304 | 0.292 | 0.914 | 1.01 | 0.977 | 0.807 | 0.832
9 | RERF-LC-KJ | 0.768 | 0.931 | 0.935 | 0.626 | 0.741 | 0.466 | 0.48 | 0.464 | 0.463 | 0.375 | 0.842 | 0.944 | 0.923 | 1.06 | 0.779 | 0.773 | 0.893 | 0.716 | 0.696
10 | SK-LU-1 | 0.781 | 0.788 | 0.845 | 0.814 | 0.654 | 1.02 | 1.03 | 0.869 | 0.689 | 0.385 | 0.368 | 0.418 | 0.393 | 0.392 | 0.831 | 0.796 | 0.854 | 0.453 | 0.681
11 | SK-MES-1 | 1.16 | 1.25 | 1.29 | 1.02 | 0.793 | 0.998 | 0.919 | 0.866 | 0.782 | 0.359 | 0.623 | 0.576 | 0.777 | 0.688 | 0.799 | 0.864 | 0.904 | 0.809 | 0.525
12 | SW 1573 | 0.903 | 0.879 | 1.03 | 0.768 | 0.585 | 0.817 | 0.982 | 0.852 | 0.771 | 0.343 | 0.435 | 0.414 | 0.577 | 0.531 | 0.854 | 0.713 | 0.823 | 0.696 | 0.724
